*1 amine or outer side, *2 acyl side, *3 side chain or, on linkers, in order; H or OH if unused. Where a SMILES comes first, the peptide text is derived from it. Bridges are numbered along the chain shown (N, C = ends). [ ]: non-standard residue; d: D form. The star is where a group is joined. X3 = NC(=O)CN1CCN(CC(=O)O)CCN(CC(=O)NCCOCCOCCC(=O)N[C@@H](Cc2ccccc2)C(=O)NC(CC(=O)[*:1])CC(=O)[*:2])CCN(CC(=O)O)CC1; X1 = NC(=O)CN1CCN(CC(=O)O)CCN(CC(=O)*)CCN(CC(=O)O)CC1; oXylylene = c1ccc(C[*:2])c(C[*:1])c1; Dap = NC[C@H](N)C(=O)O; PEG2 = NCCOCCOCCC(=O)O

The target in this assay is T1, Human Fibroblast Activation Protein (FAP) (Homo sapiens, UniProt Q12884).
T1 sequence (Q12884 1-760): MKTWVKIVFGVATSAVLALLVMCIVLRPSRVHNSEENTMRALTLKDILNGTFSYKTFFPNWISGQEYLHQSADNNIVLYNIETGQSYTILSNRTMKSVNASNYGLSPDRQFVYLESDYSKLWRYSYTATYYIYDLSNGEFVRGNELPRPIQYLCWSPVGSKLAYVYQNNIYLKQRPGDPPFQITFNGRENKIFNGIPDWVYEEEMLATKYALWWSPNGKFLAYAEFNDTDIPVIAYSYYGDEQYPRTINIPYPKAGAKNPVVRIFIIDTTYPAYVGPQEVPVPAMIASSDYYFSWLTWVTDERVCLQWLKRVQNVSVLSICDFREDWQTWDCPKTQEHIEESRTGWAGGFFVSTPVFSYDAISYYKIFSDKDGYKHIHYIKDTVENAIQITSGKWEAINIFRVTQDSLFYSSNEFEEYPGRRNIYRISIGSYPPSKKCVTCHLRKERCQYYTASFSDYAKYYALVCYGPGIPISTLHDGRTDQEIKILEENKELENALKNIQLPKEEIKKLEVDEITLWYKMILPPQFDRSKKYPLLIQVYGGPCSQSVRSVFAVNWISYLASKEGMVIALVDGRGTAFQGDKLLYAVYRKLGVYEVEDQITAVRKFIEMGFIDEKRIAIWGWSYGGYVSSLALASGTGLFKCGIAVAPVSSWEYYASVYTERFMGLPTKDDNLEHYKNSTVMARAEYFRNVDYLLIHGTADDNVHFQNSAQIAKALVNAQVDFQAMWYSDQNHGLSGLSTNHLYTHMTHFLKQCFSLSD
Nature of the assay: Enzyme inhibition assay against human FAP (substrate Z-GP-AMC), Example 1. Format: biochemical. The following applies: human FAP 5 ng/well, 50 μM Z-GP-AMC; Ki from IC50 by Cheng-Prusoff. As for the experimental part:
Binding Affinity Against Human Fibroblast Activation Protein (FAP)
An enzyme inhibition assay was performed to determine IC50 values and then the Cheng-Prusoff equation used to calculate the Ki given a known Km of the substrate Z-GP-AMC for FAP. To perform the assay, FAP (5 ng/well) and the test peptide at varying concentrations (i.e. 10^−6 to 10^−12) were incubated in a black 96-well plate for 10 minutes at RT on a shaker plate. Then, the substrate Z-GP-AMC was added to give a final concentration of 50 μM. The total reaction volume per well was 100 μL The reaction was allowed to incubate at RT on a shaker plate for 1 hour protected from light, and then fluorescence read with a BioTek Synergy LX plate reader at an ex/em (360/40 and 460/40). Experiments were performed in at least duplicate, and controls of buffer only, buffer and FAP enzyme, and buffer with substrate and FAP enzyme only were included for comparison. The buffer used for the assay was 50 mM Tris-HCl, 1M NaCl, and 1 mg/mL BSA, pH=7.5. Data was plotted in GraphPad Prism and non-linear regression used to calculate IC50 values. The compounds tested and Ki values of each were as follows: […]
On to `CC(=O)N[C@@H](CO)C(=O)N[C@H]1CSCc2ccccc2CSC[C@@H](C(N)=O)NC(=O)[C@H](Cc2c[nH]c3ccccc23)NC(=O)[C@H](Cc2ccc(O)cc2)NC(=O)[C@H](CCC(N)=O)NC(=O)[C@H](CCC(=O)O)NC(=O)[C@H](Cc2ccccc2)NC(=O)[C@@H]2CCCN2C(=O)[C@H]([C@@H](C)O)NC1=O` [VMT-FAP-2-29, Ac-S[C(oXdB)TPFEQYWC]-NH2] (Ac-SCTPFEQYWC-NH2; linker 2-10 via oXylylene), for which the Ki was 13.6 nM.

Turning to `C[C@@H](O)[C@@H]1NC(=O)[C@@H](NC(=O)[C@H](CO)NC(=O)CCOCCOCCNC(=O)CN2CCN(CC(=O)O)CCN(CC(N)=O)CCN(CC(=O)O)CC2)CSCc2ccccc2CSC[C@@H](C(N)=O)NC(=O)[C@H](Cc2c[nH]c3ccccc23)NC(=O)[C@H](Cc2c[nH]c3ccccc23)NC(=O)[C@H](CCC(N)=O)NC(=O)[C@H](CCC(=O)O)NC(=O)[C@H](Cc2ccccc2)NC(=O)[C@@H]2CCCN2C1=O` [VMT-FAP-2-30, PSC-PEG2-S-[C(oXdB)TPFEQWWC]-NH2] ({X1-PEG2}-SCTPFEQWWC-NH2; linker 2-10 via oXylylene), the Ki was determined as 0.04 nM.

With `CC(=O)N[C@@H](CO)C(=O)N[C@H]1CNC(=O)CC(NC(=O)[C@H](Cc2ccccc2)NC(=O)CCOCCOCCNC(=O)CN2CCN(CC(=O)O)CCN(CC(N)=O)CCN(CC(=O)O)CC2)CC(=O)NC[C@@H](C(N)=O)NC(=O)[C@H](Cc2c[nH]c3ccccc23)NC(=O)[C@H](Cc2c[nH]c3ccccc23)NC(=O)[C@H](CCC(N)=O)NC(=O)[C@H](CCC(=O)O)NC(=O)[C@H](Cc2ccccc2)NC(=O)[C@@H]2CCCN2C(=O)[C@H]([C@@H](C)O)NC1=O` (stereo partly drawn) [VMT-FAP-2-33, Ac-S-[Dap(bGlu(F-PEG2-PSC))TPFEQWWDap]-NH2] (Ac-S[Dap]TPFEQWW[Dap]-NH2; linker 2-10 via X3 (inferred)), the Ki is 1.26 nM. On to `C[C@@H](O)[C@@H]1NC(=O)[C@@H](NC(=O)CCOCCOCCNC(=O)CN2CCN(CC(=O)O)CCN(CC(N)=O)CCN(CC(=O)O)CC2)CSCc2ccccc2CSC[C@@H](C(N)=O)NC(=O)[C@H](Cc2c[nH]c3ccccc23)NC(=O)[C@H](Cc2c[nH]c3ccccc23)NC(=O)[C@H](CCC(N)=O)NC(=O)[C@H](CCC(=O)O)NC(=O)[C@H](Cc2ccccc2)NC(=O)[C@@H]2CCCN2C1=O` [VMT-FAP-2-36, PSC-PEG2-[C(oXdB)TPFEQWWC]-NH2] ({X1-PEG2}-CTPFEQWWC-NH2; linker 1-9 via oXylylene), for which the Ki was determined as 0.76 nM. Then `C[C@@H](O)[C@@H]1NC(=O)[C@@H](NC(=O)[C@H](CO)NC(=O)[C@H](Cc2ccccc2)NC(=O)CCOCCOCCNC(=O)CN2CCN(CC(=O)O)CCN(CC(N)=O)CCN(CC(=O)O)CC2)CSCc2ccccc2CSC[C@@H](C(N)=O)NC(=O)[C@H](Cc2c[nH]c3ccccc23)NC(=O)[C@H](Cc2c[nH]c3ccccc23)NC(=O)[C@H](CCC(N)=O)NC(=O)[C@H](CCC(=O)O)NC(=O)[C@H](Cc2ccccc2)NC(=O)[C@@H]2CCCN2C1=O` [VMT-FAP-2-39, PSC-PEG2-F-S-[C(oXdB)TPFEQWWC]-NH2] ({X1-PEG2}-FSCTPFEQWWC-NH2; linker 3-11 via oXylylene), with 0.67 nM; and `CC(=O)N[C@H]1CSCc2ccccc2CSC[C@@H](C(N)=O)NC(=O)[C@H](Cc2c[nH]c3ccccc23)NC(=O)[C@H](Cc2c[nH]c3ccccc23)NC(=O)[C@H](CCC(N)=O)NC(=O)[C@H](CCC(=O)O)NC(=O)[C@H](Cc2ccccc2)NC(=O)[C@@H]2CCCN2C(=O)[C@H]([C@@H](C)O)NC1=O` [VMT-FAP-2-40, Ac-[C(oXdB)TPFEQWWC]-NH2] (Ac-CTPFEQWWC-NH2; linker 1-9 via oXylylene), with 1.27 nM.

One may read the Ki as a dissociation constant, usually derived from enzyme kinetics or from competition with a known ligand.

For the origin of these results see US12514938B2, “Fibroblast activation protein targeting peptides” (PERSPECTIVE THERAPEUTICS, INC., priority 2023, dated 2026).
